Data on 8 molecules can be found in ChEMBL document CHEMBL1201862, “PubChem BioAssay data set” (2004).

Molecules are shown by their SMILES.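 1) Cells in 96-well plates. 2) Compound, 48 h, 5 concentrations. 3) Linear interpolation between surrounding doses. 4) Unreached endpoint = highest concentration. GI50 is the concentration that inhibits growth by half.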 Activity calls are given as the source filed them. Rule as the data show it: active = GI50 up to about 1.1 µM and inactive = higher.

Some test systems named below: 786-0; A498; CAKI-1; DU-145; HCC 2998; IGROV-1; MDA-MB-231; Malme-3M; OVCAR-3; RPMI-8226; RXF 393; SF-295; SF-539; SK-OV-3; SN12C; U-251; UACC-62; ACHN; UO-31; HL-60.
What all share (test): NCI tumour cell line growth inhibition, 48 h

Take `Cc1c2c(c(O)c3c(O)cccc13)C(=O)C1(O)C(=O)C(C(=O)NCNc3ccc(C(N)=O)cn3)=C(O)C(N(C)C)C1C2` (stereo unspecified): the GI50 with 786-0 was 5.52 µM (inactive); with A498, 2.51 µM (inactive); in the assay with CAKI-1 it was 5.36 µM (inactive); in the assay on DU-145 it was 4.39 µM (inactive); with HCC 2998, 3.07 µM (inactive); with IGROV-1 it was 1.82 µM (inactive). In addition, the GI50 was 3.78 µM (inactive) with MDA-MB-231; 3.28 µM (inactive) in the assay with Malme-3M; 2.49 µM (inactive) in the assay with OVCAR-3; 1.83 µM (inactive) in the assay on RPMI-8226; 2.89 µM (inactive) in the assay with RXF 393; 2.87 µM (inactive) in the assay with SF-295. In addition, the GI50 in the assay with SF-539 is 2.52 µM (inactive); in the assay with SK-OV-3, 3.1 µM (inactive); in the assay on SN12C it was 4.78 µM (inactive); in the assay on U-251 it was 2.6 µM (inactive); in the assay on UACC-62 it was 3.39 µM (inactive).
For the molecule `c1ccc(C(CCN2CCCC2)c2ccccn2)cc1` (stereo unspecified), the GI50 in the assay with 786-0, in the assay with A498, with ACHN, in the assay with CAKI-1, in the assay on DU-145 and in the assay with HCC 2998 was > 100 µM (inactive) throughout. Further, the GI50 in the assay on IGROV-1, in the assay with MDA-MB-231, in the assay with Malme-3M, with RPMI-8226, with RXF 393 and with SF-295 was > 100 µM (inactive) in each case. Also, the GI50 in the assay on SK-OV-3, with SN12C, in the assay on U-251, in the assay with UACC-62 and in the assay on UO-31 was > 100 µM (inactive) each time.
In the case of `Cc1c(C=C(C#N)C#N)c(=O)n(C)c(=O)n1C`, the GI50 in the assay with 786-0, in the assay on A498, in the assay on ACHN, in the assay with CAKI-1, with DU-145 and with HL-60 was > 100 µM (inactive) each time. The GI50 was > 100 µM (inactive) in the assay on IGROV-1; > 100 µM (inactive) with MDA-MB-231; > 100 µM (inactive) in the assay on Malme-3M; > 100 µM (inactive) in the assay on OVCAR-3; 72.8 µM (inactive) with RPMI-8226; > 100 µM (inactive) in the assay with RXF 393. Besides, the GI50 in the assay with SF-295, in the assay with SF-539, in the assay on SK-OV-3, in the assay on SN12C, in the assay with U-251 and with UACC-62 was > 100 µM (inactive) each time. Further, in the assay with UO-31, the GI50 was > 100 µM (inactive).
For `O=C1C=C(Nc2cccnc2)c2ccccc2/C1=N/O`, the GI50 in the assay on 786-0 was 57.7 µM (inactive); with A498 it was 41.3 µM (inactive); with ACHN, 23.2 µM (inactive); with CAKI-1 it was 40.4 µM (inactive); in the assay with DU-145, 50.5 µM (inactive); in the assay on HCC 2998, 22.5 µM (inactive). Moreover, the GI50 is 0.789 µM (active) in the assay on HL-60; 13.6 µM (inactive) in the assay on IGROV-1; 16.7 µM (inactive) in the assay on MDA-MB-231; 1.81 µM (inactive) with OVCAR-3; 38 µM (inactive) with RPMI-8226; 33.7 µM (inactive) in the assay on RXF 393. Besides, the GI50 is 39.2 µM (inactive) in the assay with SF-295; 18.5 µM (inactive) in the assay on SF-539; 46.2 µM (inactive) in the assay with SK-OV-3; 34.4 µM (inactive) with SN12C; 26.3 µM (inactive) in the assay on U-251; 20.9 µM (inactive) in the assay on UACC-62. In addition, the GI50 in the assay with UO-31 was 21 µM (inactive).
`CN1CCC23c4c5ccc(O)c4OC2c2[nH]c4ccccc4c2CC3(O)C1C5` (stereo unspecified): the GI50 in the assay on 786-0 is 18.7 µM (inactive); in the assay with A498, 18.8 µM (inactive); in the assay with ACHN, 24.4 µM (inactive); with CAKI-1, 47.1 µM (inactive); with DU-145 it was 97.7 µM (inactive); with HCC 2998, 17.5 µM (inactive). In addition, the GI50 with IGROV-1 was 66.4 µM (inactive); with MDA-MB-231, 31.5 µM (inactive); in the assay on Malme-3M, 20.6 µM (inactive); in the assay on OVCAR-3, 42.6 µM (inactive); in the assay on RPMI-8226, 19.5 µM (inactive); in the assay on RXF 393, 23.5 µM (inactive). For the same molecule, the GI50 was 52.4 µM (inactive) with SF-295; > 100 µM (inactive) in the assay on SK-OV-3; 70.5 µM (inactive) with SN12C; 22.5 µM (inactive) in the assay with U-251; 23.4 µM (inactive) with UACC-62; 15.2 µM (inactive) in the assay on UO-31.
In the case of `C=C(Cl)C(Br)(CBr)CCC(Br)C(C)(C)Br` (stereo unspecified), the GI50 in the assay with 786-0 was 1.57 µM (inactive); in the assay with A498, > 10 µM (inactive); in the assay on ACHN, 9.16 µM (inactive); in the assay with CAKI-1, > 10 µM (inactive); with DU-145 it was > 10 µM (inactive); with HCC 2998 it was > 10 µM (inactive). The GI50 with IGROV-1 was 1.55 µM (inactive); in the assay on MDA-MB-231 it was 1.62 µM (inactive); in the assay on OVCAR-3 it was > 10 µM (inactive); in the assay with RPMI-8226, 1.83 µM (inactive); with RXF 393, 2.75 µM (inactive); in the assay with SF-295, > 10 µM (inactive). The GI50 in the assay with SF-539 is 2.54 µM (inactive); with SK-OV-3, > 10 µM (inactive); with SN12C, 7.73 µM (inactive); in the assay with U-251, 5.11 µM (inactive); with UACC-62, 4.11 µM (inactive); with UO-31, > 10 µM (inactive).
Regarding `CCOC(=O)c1ccc2nc(NC(=O)COC(=O)CSc3nc(C)cc(C)n3)sc2c1`, the GI50 was 97.1 µM (inactive) in the assay with 786-0; 34 µM (inactive) in the assay on A498; 46.5 µM (inactive) with ACHN; 26.3 µM (inactive) in the assay on CAKI-1; 28.3 µM (inactive) in the assay with DU-145; 15.8 µM (inactive) in the assay on HL-60. For the same molecule, the GI50 in the assay on IGROV-1 was 27 µM (inactive); in the assay on MDA-MB-231, 66.4 µM (inactive); in the assay on Malme-3M it was > 100 µM (inactive); in the assay on OVCAR-3 it was 25.3 µM (inactive); in the assay with RPMI-8226, 53 µM (inactive); in the assay on RXF 393 it was 30.3 µM (inactive). Also, the GI50 with SF-295 was 36.6 µM (inactive); in the assay on SF-539, 26.1 µM (inactive); with SK-OV-3, 32.5 µM (inactive); in the assay on SN12C it was 39 µM (inactive); with U-251 it was 48.6 µM (inactive); in the assay with UACC-62, 25.8 µM (inactive). Moreover, the GI50 in the assay with UO-31 is 13.9 µM (inactive).
Consider `COc1ccc(C2=NNC(=O)c3ccccc3N2c2nc(-c3cccs3)nc3ccc(Br)cc23)cc1`, for which the GI50 in the assay with 786-0 was 25.8 µM (inactive); with A498 it was > 100 µM (inactive); with ACHN, 61.2 µM (inactive); in the assay on CAKI-1, 76.2 µM (inactive); in the assay on DU-145, 39.9 µM (inactive); with HL-60, > 100 µM (inactive). Further, the GI50 with IGROV-1 is 63.5 µM (inactive); with MDA-MB-231, 43.2 µM (inactive); in the assay with Malme-3M, 25.2 µM (inactive); in the assay with OVCAR-3 it was 23 µM (inactive); in the assay with RPMI-8226 it was 52.2 µM (inactive); with RXF 393 it was 68.4 µM (inactive). Further, the GI50 in the assay with SF-295 was 20.6 µM (inactive); in the assay with SF-539, 16.7 µM (inactive); in the assay on SK-OV-3, 53.7 µM (inactive); in the assay with SN12C it was 56 µM (inactive); in the assay on U-251, 28.8 µM (inactive); in the assay with UACC-62 it was 64.1 µM (inactive). In the assay with UO-31, the GI50 is > 100 µM (inactive).
